Reference: PubChem BioAssay AID274 (DTP/NCI, 2004)
“And” between values parts separate entries of the source, which are not always exact repeats. Identical values can stand only once. Inconclusive results and toxic doses are left out. How the source made its calls: active means survival T/C of 150% or more; inactive means T/C below 125% in these data.

System: BDF1 mice, Lewis lung carcinoma iv, survival T/C
Test: NCI In Vivo Anticancer Drug Screen. Data for tumor model Lewis Lung Carcinoma (intravenous) in B6D2F1 (BDF1) mice
Conditions: endpoint: median survival time, higher = longer survival
Description: The antitumor activity of compounds was measured in mice bearing transplantable tumors. Survival or tumor size were measured and the results are expressed as the measurement made in the treated group (T) divided by the measurement made in the vehicle treated control group (C). The tumor model used in this assay is Lewis Lung Carcinoma (intravenous) in B6D2F1 (BDF1) mice

[1] = dose: 25.0 mg/kg/injection, schedule: Q01DX009 (ip), vehicle: saline
[2] = dose: 50.0 mg/kg/injection, schedule: Q01DX009 (ip), vehicle: saline
[3] = dose: 100.0 mg/kg/injection, schedule: Q01DX009 (ip), vehicle: saline
[4] = dose: 12.5 mg/kg/injection, schedule: Q01DX009 (ip), vehicle: saline with Tween-80
[5] = dose: 5.0 mg/kg/injection, schedule: Q01DX009 (ip), vehicle: saline
[6] = dose: 10.0 mg/kg/injection, schedule: Q01DX009 (ip), vehicle: saline
[7] = dose: 20.0 mg/kg/injection, schedule: Q01DX009 (ip), vehicle: saline
[8] = dose: 100.0 mg/kg/injection, schedule: Q01DX009 (ip), vehicle: Klucel (hydroxypropylcellulose) (HPC)
[9] = dose: 3.12 mg/kg/injection, schedule: Q01DX009 (ip), vehicle: saline with Tween-80
[10] = dose: 6.25 mg/kg/injection, schedule: Q01DX009 (ip), vehicle: saline with Tween-80
[11] = dose: 25.0 mg/kg/injection, schedule: Q01DX009 (ip), vehicle: saline with Tween-80
[12] = dose: 50.0 mg/kg/injection, schedule: Q01DX009 (ip), vehicle: saline with Tween-80
[13] = dose: 100.0 mg/kg/injection, schedule: Q01DX009 (ip), vehicle: saline with Tween-80
[14] = dose: 200.0 mg/kg/injection, schedule: Q01DX009 (ip), vehicle: saline with Tween-80
[15] = dose: 12.5 mg/kg/injection, schedule: Q01DX009 (ip), vehicle: water
[16] = dose: 25.0 mg/kg/injection, schedule: Q01DX009 (ip), vehicle: water
[17] = dose: 400.0 mg/kg/injection, schedule: Q01DX009 (ip), vehicle: saline with Tween-80

Measured: T/C

COC(OC(CO)C(O)S(=O)(=O)O)C(O)S(=O)(=O)O (stereo unspecified)
inactive: dose: 12.5 mg/kg/injection, schedule: Q01DX009 (ip), vehicle: saline 105 % of control | [1] 106 % of control | [2] 102 % of control | [3] 99 % of control | dose: 400.0 mg/kg/injection, schedule: Q01DX009 (ip), vehicle: saline 90 % of control

OCCN1CCN(CC/C=C2/c3ccccc3Sc3ccc(C(F)(F)F)cc32)CC1
inactive: dose: 1.56 mg/kg/injection, schedule: Q01DX009 (ip), vehicle: saline with Tween-80 98 % of control | dose: 3.13 mg/kg/injection, schedule: Q01DX009 (ip), vehicle: saline with Tween-80 97 % of control | [4] 97 % of control

CS(=O)(=O)OCCCNCCCOS(C)(=O)=O
inactive: [5] 96 % of control | [6] 106 % of control and 114 % of control | [7] 108 % of control | dose: 40.0 mg/kg/injection, schedule: Q01DX009 (ip), vehicle: saline 113 % of control

C=CCNc1ccc(C)cc1
inactive: [8] 86 % of control

Nc1nnc[se]1
inactive: [9] 103 % of control | [10] 111 % of control | [11] 118 % of control

Cc1c(N)nc([C@H](CC(N)=O)NC[C@H](N)C(N)=O)nc1C(=O)N[C@H](C(=O)N[C@H](C)[C@@H](O)[C@H](C)C(=O)N[C@H](C(=O)NCCc1nc(-c2nc(C(=O)NCCC[S+](C)C)cs2)cs1)[C@@H](C)O)C(OC1OC(CO)C(O)C(O)C1OC1OC(CO)C(O)C(OC(N)=O)C1O)c1cnc[nH]1 (stereo partly specified)
inactive: dose: 2.0 mg/kg/injection, schedule: Q01DX009 (ip), vehicle: saline 113 % of control | dose: 4.0 mg/kg/injection, schedule: Q01DX009 (ip), vehicle: saline 115 % of control | dose: 12.0 mg/kg/injection, schedule: Q04DX003 (ip), vehicle: saline 105 % of control and 115 % of control | dose: 18.0 mg/kg/injection, schedule: Q04DX003 (ip), vehicle: saline 115 % of control (2×) and 116 % of control | dose: 27.0 mg/kg/injection, schedule: Q04DX003 (ip), vehicle: saline 109 % of control | dose: 40.0 mg/kg/injection, schedule: Q04DX003 (ip), vehicle: saline 113 % of control | dose: 60.0 mg/kg/injection, schedule: Q04DX003 (ip), vehicle: saline 115 % of control

CCC/C=C/C=C/C(=O)OC1/C(=C/C(=O)OC)CC2CC(C(C)O)OC(=O)CC(O)CC3CC(OC(C)=O)C(C)(C)C(O)(CC4C/C(=C/C(=O)OC)CC(/C=C/C(C)(C)C1(O)O2)O4)O3 (stereo unspecified)
inactive: dose: 18.75 micrograms/kg/injection, schedule: Q01DX009 (ip), vehicle: saline + alcohol 90 % of control | dose: 37.5 micrograms/kg/injection, schedule: Q01DX009 (ip), vehicle: saline + alcohol 98 % of control | dose: 75.0 micrograms/kg/injection, schedule: Q01DX009 (ip), vehicle: saline + alcohol 107 % of control

Nc1nc2c(c(=O)[nH]1)NC(CCNc1ccc(C(=O)NC(CCC(=O)O)C(=O)O)cc1)CN2 (stereo unspecified)
inactive: [1] 111 % of control | [2] 103 % of control | [3] 117 % of control

O=C(O)CC[S-].[Ag+]
inactive: [12] 99 % of control | [13] 102 % of control | [14] 91 % of control

COP12(OCCO1)SC(C(F)(F)F)=C(C(F)(F)F)S2
inactive: [10] 106 % of control | [4] 105 % of control | [11] 98 % of control | [12] 95 % of control

CN(C)C(=O)c1cccc(COc2ccc(N3C(N)=NC(N)=NC3(C)C)cc2Cl)c1
inactive: dose: 0.09 mg/kg/injection, schedule: Q01DX009 (ip), vehicle: saline 95 % of control | dose: 0.19 mg/kg/injection, schedule: Q01DX009 (ip), vehicle: saline 108 % of control | dose: 0.39 mg/kg/injection, schedule: Q01DX009 (ip), vehicle: saline 95 % of control | dose: 0.78 mg/kg/injection, schedule: Q01DX009 (ip), vehicle: saline 101 % of control | dose: 1.56 mg/kg/injection, schedule: Q01DX009 (ip), vehicle: saline 92 % of control | dose: 3.12 mg/kg/injection, schedule: Q01DX009 (ip), vehicle: saline 118 % of control

Nc1cc2c3c(cccc3c1)C(=O)N(CCN1CCCC1)C2=O
inactive: [9] 99 % of control | [10] 103 % of control | [4] 103 % of control | [11] 115 % of control | [12] 113 % of control | [13] 119 % of control

COc1ccc(-c2csc(=[N+]3CCCCC3)s2)cc1
inactive: dose: 1.56 mg/kg/injection, schedule: Q01DX009 (ip), vehicle: water 94 % of control | dose: 3.12 mg/kg/injection, schedule: Q01DX009 (ip), vehicle: water 101 % of control | dose: 6.25 mg/kg/injection, schedule: Q01DX009 (ip), vehicle: water 100 % of control | [15] 99 % of control | [16] 108 % of control

Nc1nc2c(ncn2C2OC(CO)C(O)C2O)c(=O)[nH]1.Nc1nc2c(ncn2C2OC(CO)C(O)C2O)c(=O)[nH]1.[NH2-].[NH2-].[Pt+2] (stereo unspecified)
inactive: [15] 99 % of control | [16] 96 % of control | dose: 50.0 mg/kg/injection, schedule: Q01DX009 (ip), vehicle: water 104 % of control | dose: 100.0 mg/kg/injection, schedule: Q01DX009 (ip), vehicle: water 113 % of control

CC12C(=O)C=CCC1=CCC1C2CCC2(O)C(=O)OC3(C)C4CC5(C)C(COC16OC23C5C6=O)C(=O)O4 (stereo unspecified)
inactive: dose: 25.0 mg/kg/injection, schedule: Q01DX009 (ip), vehicle: Klucel (hydroxypropylcellulose) (HPC) 101 % of control | dose: 50.0 mg/kg/injection, schedule: Q01DX009 (ip), vehicle: Klucel (hydroxypropylcellulose) (HPC) 100 % of control | [8] 105 % of control

CC(=O)OCC1OC(n2ncc(=O)[nH]c2=O)C(OC(C)=O)C1OC(C)=O (stereo unspecified)
inactive: [8] 100 % of control | dose: 200.0 mg/kg/injection, schedule: Q01DX009 (ip), vehicle: Klucel (hydroxypropylcellulose) (HPC) 109 % of control | dose: 400.0 mg/kg/injection, schedule: Q01DX009 (ip), vehicle: Klucel (hydroxypropylcellulose) (HPC) 107 % of control

Nc1nc(=S)c2ncn(C3OC(CO)CC3O)c2[nH]1 (stereo unspecified)
inactive: [5] 115 % of control | [6] 101 % of control | [7] 87 % of control

CC(=O)O[C@@H]1CO[C@H]2O[C@H]3[C@@H](C(C=O)=C[C@H](O)[C@@H]4C5=C(C(C)C)CC[C@]5(C)CC[C@@]34C)[C@@]2(O)C1=O
inactive: dose: 0.75 mg/kg/injection, schedule: Q01DX009 (ip), vehicle: Klucel (hydroxypropylcellulose) (HPC) 96 % of control | dose: 1.5 mg/kg/injection, schedule: Q01DX009 (ip), vehicle: Klucel (hydroxypropylcellulose) (HPC) 107 % of control

[O-][n+]1c(CN2CCCCC2)nc2cccc3c2c1-c1ccccc1-3
inactive: [4] 98 % of control and 100 % of control | [11] 98 % of control and 123 % of control | [12] 105 % of control and 106 % of control | [13] 111 % of control and 116 % of control | [14] 102 % of control and 118 % of control | [17] 111 % of control

O=CN(SSN(C=O)C1CCCCC1)C1CCCCC1
inactive: [4] 114 % of control | [11] 108 % of control | [12] 99 % of control | [13] 95 % of control | [14] 101 % of control | [17] 87 % of control

O=C1c2ccccc2C(=O)c2c3c(cc(NCCNCCO)c21)N(CCO)CCN3
inactive: dose: 50.0 mg/kg/injection, schedule: Q01DX009 (ip), vehicle: DMSO 108 % of control
